From US20220348569A1 (priority 2021, published 2022)
Entries after “also recorded” stand apart in the source; their conditions may differ. Read-outs that look alike come from different tables or passages of the source.

Key:
in vitro [1] = details: human
in vitro [2] = details: human; remark: listed apart in the source
SARS-CoV-2 pseudovirus [3] = test: microbe, parasite or virus in culture; type: cell-based; details: for IC50: Severe acute respiratory syndrome-related coronavirus, read-out: IC50s against SARS-CoV-2 pseudovirus over the cell lines
in vitro [4] = details: human; remark: listed apart in the source
MERS-CoV pseudovirus [5] = test: microbe, parasite or virus in culture; type: cell-based; details: Middle East respiratory syndrome-related coronavirus, Huh-7
[6] = tested on: SARS-CoV-2 (US_WA-1/2020); type: cell-based
MERS-CoV pseudovirus [7] = test: microbe, parasite or virus in culture; type: cell-based; details: Middle East respiratory syndrome-related coronavirus, MRC5
[8] = tested on: SARS-CoV-2 full Spike wild-type (Wuhan-Hu-1) mediated cell-to-cell fusion; test: cells; type: cell-based; details: for inhibition at 0.25 µM: Severe acute respiratory syndrome coronavirus 2, Jurkat, at 250 nM, read-out: inhibitory activity of SARS-CoV-2 mediated cell-to-cell fusion
in vitro [9] = details: human, Caco-2, pH 7.4
MERS-CoV pseudovirus [10] = test: microbe, parasite or virus in culture; type: cell-based; details: Middle East respiratory syndrome-related coronavirus, read-out: IC50 against MERS-CoV pseudovirus
SARS-CoV pseudovirus [11] = test: microbe, parasite or virus in culture; type: cell-based; details: Severe acute respiratory syndrome coronavirus, 293T/ACE2
[12] = rat, in vivo
SARS-CoV pseudovirus [13] = test: microbe, parasite or virus in culture; type: cell-based; details: Severe acute respiratory syndrome coronavirus, A549-ACE2
SARS-CoV pseudovirus [14] = test: microbe, parasite or virus in culture; type: cell-based; details: Severe acute respiratory syndrome coronavirus, HT-1080
in vivo = details: female, rat; for AUC(0-t): Sprague Dawley
[15] = molecular target: SARS-CoV-2 spike (active trimer) His-tag (Severe acute respiratory syndrome coronavirus 2, UniProt P0DTC2); type: binding
SARS-CoV pseudovirus [16] = type: cell-based
SARS-CoV-2 pseudovirus [17] = test: microbe, parasite or virus in culture; type: cell-based; details: Severe acute respiratory syndrome-related coronavirus, A549-ACE2
[18] = both, human, microsomes
in vitro [19] = details: both, human, plasma
[20] = female, Sprague Dawley, iv, 5 mg/kg

## O=C1NC(=S)S/C1=C\c1ccc(-c2ccc(C(=O)O)c(Cl)c2)o1 [Compound 21]
In vitro [1]
  CC50: > 100 µM
In vitro [2]
  CC50: > 100 µM

## O=C1NC(=S)S/C1=C\c1ccc(-c2ccc(C(=O)O)cc2)o1 [Compound 28]
SARS-CoV-2 pseudovirus [3]
  antiviral activity against SARS-CoV-2 pseudovirus (in words): loses the inhibitory activity; also recorded: showed no inhibition

## O=C1C(=Cc2ccc(-c3ccc(Cl)cc3)o2)SC(=S)N1CCc1ccccc1 [Compound 10, 5-((5-(4-chlorophenyl)furan-2-yl)methylene)-3-phenethyl-2-thioxothiazolidin-4-one]
SARS-CoV-2 pseudovirus [3]
  antiviral activity against SARS-CoV-2 pseudovirus (in words): no antiviral potency at the highest dose tested
  IC50: > 2000 nM

## O=C(O)c1cccc(-c2ccc(/C=C3\SC(=S)N(C4CCCCC4)C3=O)o2)c1 [Compound 25]
SARS-CoV-2 pseudovirus [3]
  antiviral activity against SARS-CoV-2 pseudovirus (in words): displayed antiviral potency
In vitro [4]
  CC50: > 100 µM
In vitro [1]
  CC50: > 100 µM
In vitro [2]
  CC50: > 100 µM
MERS-CoV pseudovirus [5]
  IC50: 247 ± 47 nM

## Cc1ccc(-c2ccc(/C=C3\SC(=S)N(CCc4ccccc4)C3=O)o2)cc1C(=O)O [Compound 4]
[6]
  IC100: 2.5 µM
SARS-CoV-2 pseudovirus [3]
  antiviral activity against SARS-CoV-2 pseudovirus (in words): low nanomolar activity; also recorded: excellent antiviral activity
  IC50: 26 to 73 nM
MERS-CoV pseudovirus [7]
  IC50: 76.5 to 123 nM
[8]
  inhibition of SARS-CoV-2 mediated cell-to-cell fusion (in words): potently inhibited the cell-to-cell fusion even at the lowest dose
  inhibition at 0.25 µM: 62 to 79%
MERS-CoV pseudovirus [5]
  IC50: 95 to 158 nM

## C=CCN1C(=O)/C(=C/c2ccc(-c3cccc(C(=O)O)c3)o2)SC1=S [Compound 17]
In vitro [1]
  CC50: > 100 µM
In vitro [2]
  CC50: > 100 µM

## CCN1C(=O)/C(=C/c2ccc(-c3ccc(Cl)c(C(=O)O)c3)o2)SC1=S [Compound 24]
In vitro [4]
  CC50: ~100 µM
In vitro [1]
  CC50: > 100 µM
In vitro [2]
  CC50: 78 ± 3 µM
MERS-CoV pseudovirus [5]
  IC50: 88 ± 13 nM

## COCCN1C(=O)/C(=C/c2ccc(-c3ccc(Cl)c(C(=O)O)c3)o2)SC1=S [Compound 14]
In vitro [1]
  CC50: > 100 µM
In vitro [2]
  CC50: 81 ± 1 µM

## CC(C)NCC(O)COc1cccc2ccccc12 (centres unmarked) [Propranolol]
In vitro [9]
  Papp: 19.7 ×10⁻⁶ cm/s

## O=C1NC(=S)S/C1=C\c1ccc(-c2ccc(Cl)c(C(=O)O)c2)o1 [Compound 12]
SARS-CoV-2 pseudovirus [3]
  antiviral activity against SARS-CoV-2 pseudovirus (in words): did not display any activity at the highest dose tested

## CCN1C(=O)/C(=C/c2ccc(-c3cccc(C(=O)O)c3)o2)SC1=S [Compound 13]
In vitro [1]
  CC50: > 100 µM
In vitro [2]
  CC50: 74 ± 3 µM

## C=CCN1C(=O)/C(=C/c2ccc(-c3cccc(C(=O)O)c3C)o2)SC1=S [Compound 20]
In vitro [4]
  CC50: 84 ± 4 µM
In vitro [1]
  CC50: > 100 µM
In vitro [2]
  CC50: > 100 µM
MERS-CoV pseudovirus [5]
  IC50: 340 ± 112 nM

## C#CCN1C(=O)/C(=C/c2ccc(-c3ccc(Cl)c(C(=O)O)c3)o2)SC1=S [Compound 23]
SARS-CoV-2 pseudovirus [3]
  antiviral activity against SARS-CoV-2 pseudovirus (in words): did not display any activity at the highest dose tested

## CCc1ccc(-c2ccc(/C=C3\SC(=S)N(CCc4ccccc4)C3=O)o2)cc1C(=O)O [Compound 6]
[6]
  IC100: >10 µM
SARS-CoV-2 pseudovirus [3]
  antiviral activity against SARS-CoV-2 pseudovirus (in words): slightly lower antiviral activity
MERS-CoV pseudovirus [10]
  IC50: < 1000 nM
In vitro [2]
  CC50: 40 ± 6 µM

## O=C(O)c1cccc(-c2ccc(/C=C3\SC(=S)N(CCc4ccccc4)C3=O)o2)c1 [Compound 2]
[6]
  IC100: 1.25 µM
SARS-CoV pseudovirus [11]
  IC50: 13.8 to 17 nM
SARS-CoV-2 pseudovirus [3]
  antiviral activity against SARS-CoV-2 pseudovirus (in words): low nanomolar activity; also recorded: best antiviral potency; also recorded: low nM IC50
  IC50: 22.8 to 58 nM
[12]; [20]
  C0: 1710.87 ng/mL
  CLobs: 0.00027 mg/kg/(ng/mL)/hr
  MRT0-inf_obs: 5.09 h
  Vss_obs: 0.0014 mg/kg/(ng/mL)
[12]; female, Sprague Dawley, po, 10 mg/kg
  Vss_obs: 0 mg/kg/(ng/mL)
[12]; female, Sprague-Dawley
  F %: 0.9%
[12]; female, Sprague-Dawley, po, 10 mg/kg
  MRT0-inf_obs: 7.28 h
[12]; po, 10 mg/kg
  Vz/F_obs: 0.1759 mg/kg/(ng/mL)
MERS-CoV pseudovirus [7]
  IC50: 76.5 to 123 nM
SARS-CoV pseudovirus [13]
  IC50: 98 to 157 nM
SARS-CoV pseudovirus [14]
  IC50: 19.3 to 39 nM
[8]
  inhibition of SARS-CoV-2 mediated cell-to-cell fusion (in words): potently inhibited the cell-to-cell fusion even at the lowest dose
  inhibition at 0.25 µM: 62 to 79%
MERS-CoV pseudovirus [5]
  IC50: 95 to 158 nM
In vivo; iv, 5 mg/kg
  AUC(0-t): 17100 ng·h/mL
In vivo; po, 10 mg/kg
  AUC(0-t): 319 ng·h/mL
In vivo; Sprague-Dawley, iv, 5 mg/kg
  half-life: 210 to 234 min
[15]
  ka: 872 M⁻¹ s⁻¹

## CN1C(=O)/C(=C/c2ccc(-c3cccc(C(=O)O)c3)o2)SC1=S [Compound 15]
In vitro [1]
  CC50: > 100 µM
In vitro [2]
  CC50: 53 ± 8 µM

## O=C(O)c1cccc(-c2ccc(/C=C3\SC(=S)N(CCc4ccccc4)C3=O)o2)c1F [Compound 7]
[6]
  IC100: 5 µM
MERS-CoV pseudovirus [10]
  IC50: < 1000 nM

## O=C(O)c1cc(-c2ccc(/C=C3\SC(=S)N(C4CCCCC4)C3=O)o2)ccc1Cl [Compound 18]
SARS-CoV-2 pseudovirus [3]
  antiviral activity against SARS-CoV-2 pseudovirus (in words): excellent antiviral activity; also recorded: low nM IC50
In vitro [4]
  CC50: > 100 µM
In vitro [1]
  CC50: > 100 µM
In vitro [2]
  CC50: > 100 µM
MERS-CoV pseudovirus [5]
  IC50: 10.5 ± 0.9 nM

## Cc1c(C(=O)O)cccc1-c1ccc(/C=C2\SC(=S)N(CCc3ccccc3)C2=O)o1 [Compound 5]
[6]
  IC100: >10 µM
SARS-CoV pseudovirus [16]
  activity against SARS-CoV pseudovirus (in words): poor activity
SARS-CoV-2 pseudovirus [17]
  IC50: > 2000 nM
MERS-CoV pseudovirus [10]
  IC50: > 2000 nM
[8]
  inhibition of SARS-CoV-2 mediated cell-to-cell fusion (in words): only inhibited the SARS-CoV-2 mediated cell-to-cell fusion at the higher dose (4 μM)

## N=C1NC(=O)/C(=C/c2ccc(-c3ccc(Cl)c(C(=O)O)c3)o2)S1 [Compound 26]
In vitro [2]
  CC50: > 100 µM

## C[C@]12CC[C@H]3[C@@H](CCC4=CC(=O)CC[C@@]43C)[C@@H]1CC[C@@H]2O [Testosterone, reference compound]
[18]
  half-life: 11.3 min

## O=C1/C(=C/c2ccc(-c3ccccc3)o2)SC(=S)N1CCc1ccccc1 [Compound 16]
In vitro [1]
  CC50: 40 ± 2 µM
In vitro [2]
  CC50: 75 ± 7 µM

## O=C(O)c1cc(-c2ccc(/C=C3\SC(=S)N(CCc4ccccc4)C3=O)o2)ccc1F [Compound 3]
[6]
  IC100: 2.5 µM
SARS-CoV pseudovirus [11]
  IC50: 13.8 to 17 nM
SARS-CoV-2 pseudovirus [3]
  antiviral activity against SARS-CoV-2 pseudovirus (in words): somewhat reduced activity
  selectivity index (SI, ratio CC50/IC50) over the cell lines: 750->1563
  IC50: 60.1 to 120 nM
MERS-CoV pseudovirus [7]
  IC50: 76.5 to 123 nM
SARS-CoV pseudovirus [13]
  IC50: 98 to 157 nM
SARS-CoV pseudovirus [14]
  IC50: 19.3 to 39 nM
In vitro [2]
  CC50: 45 ± 5 µM
MERS-CoV pseudovirus [5]
  IC50: 95 to 158 nM

## NS(=O)(=O)c1ccc(-c2ccc(/C=C3\SC(=S)N(CCc4ccccc4)C3=O)o2)cc1 [Compound 11]
In vitro [2]
  CC50: 13.3 ± 2 µM
MERS-CoV pseudovirus [5]
  IC50: 13.2 ± 3.7 nM

## CC(=O)CC(c1ccccc1)c1c(O)c2ccccc2oc1=O (centres unmarked) [Warfarin]
In vitro [19]
  fraction unbound: 0.018

## Cc1c(C(=O)O)cncc1-c1ccc(/C=C2\SC(=S)N(CCc3ccccc3)C2=O)o1 [Compound 9]
[6]
  IC100: 2.5 µM

## Cc1ccc(-c2ccc(/C=C3\SC(=S)N(CC(C)C)C3=O)o2)cc1C(=O)O [Compound 22]
In vitro [1]
  CC50: 70 ± 4 µM
In vitro [2]
  CC50: 68 ± 4 µM

## C=CCN1C(=O)/C(=C/c2ccc(-c3cc(C(=O)O)cc(C(=O)O)c3)o2)SC1=S [Compound 19]
In vitro [1]
  CC50: > 100 µM
In vitro [2]
  CC50: > 100 µM

## O=C(O)c1cc(-c2ccc(/C=C3\SC(=S)N(CCc4ccccc4)C3=O)o2)ccc1Br [Compound 8]
[6]
  IC100: 5 µM
SARS-CoV-2 pseudovirus [3]
  antiviral activity against SARS-CoV-2 pseudovirus (in words): excellent antiviral activity
MERS-CoV pseudovirus [10]
  IC50: < 1000 nM

## CN1C(=O)/C(=C/c2ccc(-c3cccc(C(=O)O)c3)o2)SC1=S [Compound 27]
In vitro [4]
  CC50: > 100 µM
MERS-CoV pseudovirus [5]
  IC50: 96 ± 14 nM
